Drawing on US20090018134A1, “Compounds - 945” (AstraZeneca AB, priority 2007, published 2009), this text covers IC50 for 27 compounds.

T1 sequence (P42345 1362-2549): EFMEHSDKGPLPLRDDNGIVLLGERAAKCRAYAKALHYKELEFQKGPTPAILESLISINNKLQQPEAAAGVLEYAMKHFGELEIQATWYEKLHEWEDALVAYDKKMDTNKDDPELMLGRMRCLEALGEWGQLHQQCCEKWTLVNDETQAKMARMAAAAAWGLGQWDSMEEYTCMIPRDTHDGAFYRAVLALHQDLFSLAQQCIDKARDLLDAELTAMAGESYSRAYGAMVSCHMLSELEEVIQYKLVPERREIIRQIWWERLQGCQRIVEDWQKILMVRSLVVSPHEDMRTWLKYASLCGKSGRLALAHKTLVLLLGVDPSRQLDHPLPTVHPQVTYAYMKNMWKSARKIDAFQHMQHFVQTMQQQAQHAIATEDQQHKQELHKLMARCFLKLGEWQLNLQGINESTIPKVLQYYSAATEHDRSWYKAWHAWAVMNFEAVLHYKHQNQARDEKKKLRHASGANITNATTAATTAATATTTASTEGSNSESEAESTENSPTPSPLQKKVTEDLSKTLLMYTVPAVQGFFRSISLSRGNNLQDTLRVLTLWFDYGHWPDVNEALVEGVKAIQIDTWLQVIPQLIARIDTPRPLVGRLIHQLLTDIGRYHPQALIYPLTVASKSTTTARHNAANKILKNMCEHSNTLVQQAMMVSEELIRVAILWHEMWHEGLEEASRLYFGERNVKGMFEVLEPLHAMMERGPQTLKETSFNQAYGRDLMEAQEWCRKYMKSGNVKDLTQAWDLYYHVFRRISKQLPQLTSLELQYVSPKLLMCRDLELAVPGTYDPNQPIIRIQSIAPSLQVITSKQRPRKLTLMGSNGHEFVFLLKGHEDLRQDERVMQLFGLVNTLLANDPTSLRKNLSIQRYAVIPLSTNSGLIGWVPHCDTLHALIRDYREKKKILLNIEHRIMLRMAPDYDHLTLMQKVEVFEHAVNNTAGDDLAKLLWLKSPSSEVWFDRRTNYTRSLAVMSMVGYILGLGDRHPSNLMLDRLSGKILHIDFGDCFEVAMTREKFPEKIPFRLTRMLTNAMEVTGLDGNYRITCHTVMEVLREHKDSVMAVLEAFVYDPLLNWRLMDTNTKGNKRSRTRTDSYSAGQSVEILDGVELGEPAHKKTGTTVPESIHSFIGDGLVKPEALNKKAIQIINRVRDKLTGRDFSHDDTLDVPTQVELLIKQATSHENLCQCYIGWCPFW

The assay addresses T1, mTOR (Homo sapiens, UniProt P42345).
T1 construct: FLAG; made in house
As to the kind of experiment: In Vitro mTOR Kinase Assay (Echo), Test (a)(ii). It is filed as biochemical. To be noted: table of enzyme assay Test (a)(ii); read-out: Test (a)(ii) IC50. The essentials: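 FLAG-tagged truncated mTOR (residues 1362-2549), expressed in HEK293 and purified via the FLAG tag, phosphorylated a biotinylated peptide over 2 hours at room temperature. EDTA stopped the reaction. Phospho-T389 was detected overnight by AlphaScreen using the p70 S6K T389 antibody with Protein A/streptavidin beads; IC50 reported.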
One may read the IC50 as the concentration that inhibits the measured activity by half. In the case of `CCNC(=O)Nc1ccc(-c2nc(N3CCOC[C@@H]3C)cc(C3(S(=O)(=O)c4cncc(F)c4)CC3)n2)cc1` [Example 17a, 3-ethyl-1-[4-[4-[1-(5-fluoropyridin-3-yl)sulfonylcyclopropyl]-6-[(3S)-3-methylmorpholin-4-yl]pyrimidin-2-yl]phenyl]urea], the IC50 stood at 0.942 nM.
For `CNC(=O)Nc1ccc(-c2nc(N3CCOC[C@@H]3C)cc(C3(S(=O)(=O)c4cncc(F)c4)CC3)n2)cc1` [Example 17b, 1-[4-[4-[1-(5-fluoropyridin-3-yl)sulfonylcyclopropyl]-6-[(3S)-3-methylmorpholin-4-yl]pyrimidin-2-yl]phenyl]-3-methylurea] the value was 0.584 nM; for `C[C@H]1COCCN1c1cc(C2(S(=O)(=O)c3cncc(F)c3)CC2)nc(-c2ccc(NC(=O)NC3CC3)cc2)n1` [Example 17c, 3-cyclopropyl-1-[4-[4-[1-(5-fluoropyridin-3-yl)sulfonylcyclopropyl]-6-[(3S)-3-methylmorpholin-4-yl]pyrimidin-2-yl]phenyl]urea], 1.79 nM.
For `C[C@H]1COCCN1c1cc(C2(S(=O)(=O)C(C)(C)C)CC2)nc(-c2ccc(NC(=O)NC3CC3)cc2)n1` [Example 18, 1-[4-[4-(1-tert-Butylsulfonylcyclopropyl)-6-[(3S)-3-methylmorpholin-4-yl]pyrimidin-2-yl]phenyl]-3-cyclopropylurea] the value was 1.35 nM; for `C[C@H]1COCCN1c1cc(C2(S(=O)(=O)C(C)(C)C)CC2)nc(-c2ccc(NC(=O)Nc3ccccn3)cc2)n1` [Example 18b, 1-[4-[4-(1-tert-butylsulfonylcyclopropyl)-6-[(3S)-3-methylmorpholin-4-yl]pyrimidin-2-yl]phenyl]-3-pyridin-2-ylurea], 14.7 nM; for `CC(C)CNC(=O)Nc1ccc(-c2nc(N3CCOC[C@@H]3C)cc(C3(S(=O)(=O)C(C)(C)C)CC3)n2)cc1` [Example 18c, 1-[4-[4-(1-tert-butylsulfonylcyclopropyl)-6-[(3S)-3-methylmorpholin-4-yl]pyrimidin-2-yl]phenyl]-3-(2-methylpropyl)urea], 32 nM.
For `CC(C)NC(=O)Nc1ccc(-c2nc(N3CCOC[C@@H]3C)cc(C3(S(=O)(=O)C(C)(C)C)CC3)n2)cc1` [Example 18d, 1-[4-[4-(1-tert-butylsulfonylcyclopropyl)-6-[(3S)-3-methylmorpholin-4-yl]pyrimidin-2-yl]phenyl]-3-propan-2-ylurea] the value was 15.1 nM; for `CCNC(=O)Nc1ccc(-c2nc(N3CCOC[C@@H]3C)cc(C3(S(=O)(=O)C(C)(C)C)CC3)n2)cc1` [Example 18e, 1-[4-[4-(1-tert-butylsulfonylcyclopropyl)-6-[(3S)-3-methylmorpholin-4-yl]pyrimidin-2-yl]phenyl]-3-ethylurea], 0.654 nM; for `C[C@H]1COCCN1c1cc(C2(S(=O)(=O)C(C)(C)C)CC2)nc(-c2ccc(NC(=O)NCCN(C)C)cc2)n1` [Example 18f, 1-[4-[4-(1-tert-butylsulfonylcyclopropyl)-6-[(3S)-3-methylmorpholin-4-yl]pyrimidin-2-yl]phenyl]-3-(2-dimethylaminoethyl)urea], 120 nM.
With `C[C@H]1COCCN1c1cc(C2(S(=O)(=O)C(C)(C)C)CC2)nc(-c2ccc(NC(=O)NCCO)cc2)n1` [Example 18g, 1-[4-[4-(1-tert-butylsulfonylcyclopropyl)-6-[(3S)-3-methylmorpholin-4-yl]pyrimidin-2-yl]phenyl]-3-(2-hydroxyethyl)urea], the IC50 was determined as 1.23 nM.
Next, `CCCNC(=O)Nc1ccc(-c2nc(N3CCOC[C@@H]3C)cc(C3(S(=O)(=O)C(C)(C)C)CC3)n2)cc1` [Example 18h, 1-[4-[4-(1-tert-butylsulfonylcyclopropyl)-6-[(3S)-3-methylmorpholin-4-yl]pyrimidin-2-yl]phenyl]-3-propylurea]: 6.64 nM.
Next, `CNC(=O)Nc1ccc(-c2nc(N3CCOC[C@@H]3C)cc(C3(S(=O)(=O)C(C)(C)C)CC3)n2)cc1` [Example 18i, 1-[4-[4-(1-tert-butylsulfonylcyclopropyl)-6-[(3S)-3-methylmorpholin-4-yl]pyrimidin-2-yl]phenyl]-3-methylurea]: 5.55 nM; `C[C@H]1COCCN1c1cc(C2(S(=O)(=O)C(C)(C)C)CC2)nc(-c2ccc(NC(=O)Nc3ccc(C(F)(F)F)cc3)cc2)n1` [Example 18j, 1-[4-[4-(1-tert-butylsulfonylcyclopropyl)-6-[(3S)-3-methylmorpholin-4-yl]pyrimidin-2-yl]phenyl]-3-[4-(trifluoromethyl)phenyl]urea]: 30.3 nM.
In the case of `C[C@H]1COCCN1c1cc(C2(S(=O)(=O)C(C)(C)C)CC2)nc(-c2ccc(NC(=O)NC(C)(C)CO)cc2)n1` [Example 18k, 1-[4-[4-(1-tert-butylsulfonylcyclopropyl)-6-[(3S)-3-methylmorpholin-4-yl]pyrimidin-2-yl]phenyl]-3-(1-hydroxy-2-methylpropan-2-yl)urea], the IC50 stood at 11.3 nM.
With `C[C@H]1COCCN1c1cc(C2(S(=O)(=O)C(C)(C)C)CC2)nc(-c2ccc(NC(=O)NCCCO)cc2)n1` [Example 18l, 1-[4-[4-(1-tert-butylsulfonylcyclopropyl)-6-[(3S)-3-methylmorpholin-4-yl]pyrimidin-2-yl]phenyl]-3-(3-hydroxypropyl)urea], the IC50 amounted to 10.2 nM.
Regarding `C[C@H]1COCCN1c1cc(C2(S(=O)(=O)C(C)(C)C)CC2)nc(-c2ccc(NC(=O)Nc3cnn(C)c3)cc2)n1` [Example 18m, 1-[4-[4-(1-tert-butylsulfonylcyclopropyl)-6-[(3S)-3-methylmorpholin-4-yl]pyrimidin-2-yl]phenyl]-3-(1-methylpyrazol-4-yl)urea], the IC50 came to 3.15 nM.
`C[C@H]1COCCN1c1cc(C2(S(=O)(=O)c3cc(F)cc(F)c3)CC2)nc(-c2ccc(NC(=O)NC3CC3)cc2)n1` [Example 19, 3-Cyclopropyl-1-[4-[4-[1-(3,5-difluorophenyl)sulfonylcyclopropyl]-6-[(3S)-3-methylmorpholin-4-yl]pyrimidin-2-yl]phenyl]urea]: the IC50 was found to be 1.31 nM.
Regarding `C[C@H]1COCCN1c1cc(C2(S(=O)(=O)c3cc(F)cc(F)c3)CC2)nc(-c2ccc(NC(=O)NC3CCC3)cc2)n1` [Example 19a, 3-cyclobutyl-1-[4-[4-[1-(3,5-difluorophenyl)sulfonylcyclopro-pyl]-6-[(3S)-3-methylmorpholin-4-yl]pyrimidin-2-yl]phenyl]urea], the IC50 was found to be 4.25 nM.
For `C[C@H]1COCCN1c1cc(C2(S(=O)(=O)c3cc(F)cc(F)c3)CC2)nc(-c2ccc(NC(=O)Nc3ccccn3)cc2)n1` [Example 19b, 1-[4-[4-[1-(3,5-difluorophenyl)sulfonylcyclopro-pyl]-6-[(3S)-3-methylmorpholin-4-yl]pyrimidin-2-yl]phenyl]-3-pyridin-2-ylurea] the value was 1.19 nM; for `CC(C)CNC(=O)Nc1ccc(-c2nc(N3CCOC[C@@H]3C)cc(C3(S(=O)(=O)c4cc(F)cc(F)c4)CC3)n2)cc1` [Example 19c, 1-[4-[4-[1-(3,5-difluorophenyl)sulfonylcyclopro-pyl]-6-[(3S)-3-methylmorpholin-4-yl]pyrimidin-2-yl]phenyl]-3-(2-methylpropyl)urea], 21.4 nM.
Next, `CC(C)NC(=O)Nc1ccc(-c2nc(N3CCOC[C@@H]3C)cc(C3(S(=O)(=O)c4cc(F)cc(F)c4)CC3)n2)cc1` [Example 19d, 1-[4-[4-[1-(3,5-difluorophenyl)sulfonylcyclopro-pyl]-6-[(3S)-3-methylmorpholin-4-yl]pyrimidin-2-yl]phenyl]-3-propan-2-ylurea]: 3.18 nM; `CCNC(=O)Nc1ccc(-c2nc(N3CCOC[C@@H]3C)cc(C3(S(=O)(=O)c4cc(F)cc(F)c4)CC3)n2)cc1` [Example 19e, 1-[4-[4-[1-(3,5-difluorophenyl)sulfonylcyclopro-pyl]-6-[(3S)-3-methylmorpholin-4-yl]pyrimidin-2-yl]phenyl]-3-ethylurea]: 1.35 nM.
Next, `C[C@H]1COCCN1c1cc(C2(S(=O)(=O)c3cc(F)cc(F)c3)CC2)nc(-c2ccc(NC(=O)NCCN(C)C)cc2)n1` [Example 19f, 1-[4-[4-[1-(3,5-difluorophenyl)sulfonylcyclopro-pyl]-6-[(3S)-3-methylmorpholin-4-yl]pyrimidin-2-yl]phenyl]-3-(2-dimethylaminoethyl)urea]: 80.4 nM.
As for `C[C@H]1COCCN1c1cc(C2(S(=O)(=O)c3cc(F)cc(F)c3)CC2)nc(-c2ccc(NC(=O)NCCO)cc2)n1` [Example 19g, 1-[4-[4-[1-(3,5-difluorophenyl)sulfonylcyclopro-pyl]-6-[(3S)-3-methylmorpholin-4-yl]pyrimidin-2-yl]phenyl]-3-(2-hydroxyethyl)urea], the concentration for half-maximal inhibition (IC50) amounted to 0.274 nM.
Next, `CCCNC(=O)Nc1ccc(-c2nc(N3CCOC[C@@H]3C)cc(C3(S(=O)(=O)c4cc(F)cc(F)c4)CC3)n2)cc1` [Example 19h, 1-[4-[4-[1-(3,5-difluorophenyl)sulfonylcyclopro-pyl]-6-[(3S)-3-methylmorpholin-4-yl]pyrimidin-2-yl]phenyl]-3-propylurea]: 2.46 nM; `CNC(=O)Nc1ccc(-c2nc(N3CCOC[C@@H]3C)cc(C3(S(=O)(=O)c4cc(F)cc(F)c4)CC3)n2)cc1` [Example 19i, 1-[4-[4-[1-(3,5-difluorophenyl)sulfonylcyclopro-pyl]-6-[(3S)-3-methylmorpholin-4-yl]pyrimidin-2-yl]phenyl]-3-methylurea]: 1.52 nM.
Consider `C[C@H]1COCCN1c1cc(C2(S(=O)(=O)c3cc(F)cc(F)c3)CC2)nc(-c2ccc(NC(=O)Nc3ccc(C(F)(F)F)cc3)cc2)n1` [Example 19j, 1-[4-[4-[1-(3,5-difluorophenyl)sulfonylcyclopro-pyl]-6-[(3S)-3-methylmorpholin-4-yl]pyrimidin-2-yl]phenyl]-3-[4-(trifluoromethyl)phenyl]urea], for which the concentration for half-maximal inhibition (IC50) came to 19.9 nM.
